Measurements: patent US11413243B2, “Fusogenic compounds for delivery of biologically active molecules” (Nitto Denko Corporation, priority 2017, dated 2022)

Test system: HSP47
Details: Table 5, stellate cells
Method: The in vitro activity for gene expression knockdown using an siRNA was measured using rat stellate cells in DMEM medium according to the following protocol: One day before the transfection, plate the cells in a 96-well plate at 3×10^3 cells per well for Stellate cells with 100 μl of medium containing 10% FBS and culture in a 37° C. incubator containing a humidified atmosphere of 5% CO2 in air. Before transfection, change medium to 90 μl of medium without antibiotics. Prepare the appropriate dilutions of the solution collected from the tubing in PBS buffer so that the addition of 10 μl into each well is sufficient to reach the desired concentration. 48 hours after transfection, wash the cells once with ice-cold PBS. Lyse the cells with 50 μl of Cell-to-Ct Lysis Buffer for 5-30 minutes at ambient temperature. Add 5 μl of Stop Solution and incubate for 2 minutes at ambient temperature. Measure mRNA level by qPCR with TAQMAN immediately. Alternatively, the samples can be frozen at −80° C. and assayed at later times. For qRT-PCR assay: Thaw all reagents on ice. Mix the pooled reagents in 0.2 ml PCR tubes. Dispense the set-up mixture into 384 well plate, 10 μl/well×3. Seal the plate with film, spin down mixture into the bottom of wells. Perform qRT-PCR assay.
In this example, an HSP47 siRNA was used to knockdown HSP47 gene. For TaqMan gene expression assays, HSP47 gene specific TaqMan probe was used.

CCCCC/C=C\C/C=C\CCCCCCCC(=O)OCC(OC(=O)CCCCCCC/C=C\C/C=C\CCCCC)C1CCN(C(=O)CCC(=O)NCCCCC(NC(=O)CCC(=O)N2CCC(C(COC(=O)CCCCCCC/C=C\C/C=C\CCCCC)OC(=O)CCCCCCC/C=C\C/C=C\CCCCC)CC2)C(=O)NCCCOCCOCCOCCOCCOCCCNC(=O)C(CCCCNC(=O)CCC(=O)N2CCC(C(COC(=O)CCCCCCC/C=C\C/C=C\CCCCC)OC(=O)CCCCCCC/C=C\C/C=C\CCCCC)CC2)NC(=O)CCC(=O)N2CCC(C(COC(=O)CCCCCCC/C=C\C/C=C\CCCCC)OC(=O)CCCCCCC/C=C\C/C=C\CCCCC)CC2)CC1 (stereo not drawn) [Compound T11]
% of HSP47 expression in Stellate Cell, Conc siRNA 18 nM: 11.1% | % of HSP47 expression in Stellate Cell, Conc siRNA 75 nM: 4.5% | % of HSP47 expression in Stellate Cell, Conc siRNA 300 nM: 1.8%

CCCCC/C=C\C/C=C\CCCCCCCCOC(=O)[C@H](COC(=O)CCC(=O)NCCCCC(NC(=O)CCC(=O)OC[C@H](NC(=O)CCCCCCC/C=C\C/C=C\CCCCC)C(=O)OCCCCCCCC/C=C\C/C=C\CCCCC)C(=O)NCCCOCCOCCOCCOCCOCCCNC(=O)C(CCCNC(=O)CCC(=O)OC[C@@H](NC(=O)CCCCCCC/C=C\C/C=C\CCCCC)C(=O)OCCCCCCCC/C=C\C/C=C\CCCCC)NC(=O)CCC(=O)OC[C@@H](NC(=O)CCCCCCC/C=C\C/C=C\CCCCC)C(=O)OCCCCCCCC/C=C\C/C=C\CCCCC)NC(=O)CCCCCCC/C=C\C/C=C\CCCCC (stereo partly drawn) [Compound T12]
% of HSP47 expression in Stellate Cell, Conc siRNA 18 nM: 40.2% | % of HSP47 expression in Stellate Cell, Conc siRNA 75 nM: 8.4% | % of HSP47 expression in Stellate Cell, Conc siRNA 300 nM: 2.7%

CCCCC/C=C\C/C=C\CCCCCCCC(=O)OCCN(CCOC(=O)CCCCCCC/C=C\C/C=C\CCCCC)C(=O)CCC(=O)NCCCC[C@H](NC(C)=O)C(=O)NCCCOCCOCCOCCOCCOCCCNC(=O)[C@H](CCCCNC(=O)CCC(=O)N(CCOC(=O)CCCCCCC/C=C\C/C=C\CCCCC)CCOC(=O)CCCCCCC/C=C\C/C=C\CCCCC)NC(C)=O [Compound T13]
% of HSP47 expression in Stellate Cell, Conc siRNA 18 nM: 21.8% | % of HSP47 expression in Stellate Cell, Conc siRNA 75 nM: 6.4% | % of HSP47 expression in Stellate Cell, Conc siRNA 300 nM: 3.1%

CCCCC/C=C\C/C=C\CCCCCCCC(=O)OCCN(CCOC(=O)CCCCCCC/C=C\C/C=C\CCCCC)C(=O)CCC(=O)NC(CCCCNC(C)=O)C(=O)NCCCOCCOCCOCCOCCOCCCNC(=O)[C@H](CCCCNC(C)=O)NC(=O)CCC(=O)N(CCOC(=O)CCCCCCC/C=C\C/C=C\CCCCC)CCOC(=O)CCCCCCC/C=C\C/C=C\CCCCC (stereo partly drawn) [Compound T14]
% of HSP47 expression in Stellate Cell, Conc siRNA 18 nM: 103.3% | % of HSP47 expression in Stellate Cell, Conc siRNA 75 nM: 59.1% | % of HSP47 expression in Stellate Cell, Conc siRNA 300 nM: 5.2%
